Laboratory results published in the supplement of paper PMC10307832.

Assays:
Experiment in all cases: relative viability (nuclei count vs DMSO), 5 days (fraction); higher = more cells survive
Etoposide + OSI-027 = compound: COc1cc([C@@H]2c3cc4c(cc3[C@@H](O[C@@H]3O[C@@H]5CO[C@@H](C)O[C@H]5[C@H](O)[C@H]3O)[C@H]3COC(=O)[C@H]23)OCO4)cc(OC)c1O [Etoposide] + COc1cccc2cc(-c3nc([C@H]4CC[C@H](C(=O)O)CC4)n4ncnc(N)c34)[nH]c12 [OSI-027] (partner 0.5 µM)
Outline: (§1)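 Lung cancer cell lines, seeded in 1536-well plates, were treated the following day by pin tool with a single drug or with five library-drug doses (not always all listed) in √10 steps on top of a fixed anchor-drug dose. Cells were fixed and nuclei stained in one step after 5 days, and nuclei were counted. Relative viability is the nuclei count for treated wells divided by that for vehicle wells, reported as medians of duplicate plates.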

Etoposide + Lapatinib = compound: COc1cc([C@@H]2c3cc4c(cc3[C@@H](O[C@@H]3O[C@@H]5CO[C@@H](C)O[C@H]5[C@H](O)[C@H]3O)[C@H]3COC(=O)[C@H]23)OCO4)cc(OC)c1O [Etoposide] + CS(=O)(=O)CCNCc1ccc(-c2ccc3ncnc(Nc4ccc(OCc5cccc(F)c5)c(Cl)c4)c3c2)o1 [Lapatinib] (partner 2 µM)
Outline: as §1

Etoposide + Pemetrexed = compound: COc1cc([C@@H]2c3cc4c(cc3[C@@H](O[C@@H]3O[C@@H]5CO[C@@H](C)O[C@H]5[C@H](O)[C@H]3O)[C@H]3COC(=O)[C@H]23)OCO4)cc(OC)c1O [Etoposide] + Nc1nc2[nH]cc(CCc3ccc(C(=O)N[C@@H](CCC(=O)O)C(=O)O)cc3)c2c(=O)[nH]1 [Pemetrexed] (partner 0.2 µM)
Outline: as §1

Bleomycin + Foretinib = compound: CC1=C(N=C(N=C1N)[C@H](CC(=O)N)NC[C@@H](C(=O)N)N)C(=O)N[C@@H]([C@H](C2=CN=CN2)OC3C(C(C(C(O3)CO)O)O)OC4C(C(C(C(O4)CO)O)OC(=O)N)O)C(=O)N[C@H](C)[C@H]([C@H](C)C(=O)N[C@@H]([C@@H](C)O)C(=O)NCCC5=NC(=CS5)C6=NC(=CS6)C(=O)NCCC[S+](C)C)O [Bleomycin] + COc1cc2c(Oc3ccc(NC(=O)C4(C(=O)Nc5ccc(F)cc5)CC4)cc3F)ccnc2cc1OCCCN1CCOCC1 [Foretinib] (partner 0.25 µM); settings: main component drawn
Outline: as §1

Cell Line | relative viability (Etoposide + OSI-027; first compound 0.01 µM) | relative viability (Etoposide + OSI-027; first compound 0.03162 µM) | relative viability (Etoposide + OSI-027; first compound 0.1 µM) | relative viability (Etoposide + OSI-027; first compound 0.3162 µM) | relative viability (Etoposide + OSI-027; first compound 1 µM) | relative viability (Etoposide + Lapatinib; first compound 0.01 µM) | relative viability (Etoposide + Lapatinib; first compound 0.03162 µM) | relative viability (Etoposide + Lapatinib; first compound 0.1 µM) | relative viability (Etoposide + Lapatinib; first compound 0.3162 µM) | relative viability (Etoposide + Lapatinib; first compound 1 µM) | relative viability (Etoposide + Pemetrexed; first compound 0.01 µM) | relative viability (Etoposide + Pemetrexed; first compound 0.03162 µM) | relative viability (Etoposide + Pemetrexed; first compound 0.1 µM) | relative viability (Etoposide + Pemetrexed; first compound 0.3162 µM) | relative viability (Etoposide + Pemetrexed; first compound 1 µM) | relative viability (Bleomycin + Foretinib; first compound 0.01 µM) | relative viability (Bleomycin + Foretinib; first compound 0.03162 µM) | relative viability (Bleomycin + Foretinib; first compound 0.1 µM) | relative viability (Bleomycin + Foretinib; first compound 0.3162 µM) | relative viability (Bleomycin + Foretinib; first compound 1 µM)
HCC-44 | 0.625 | 0.524 | 0.52 | 0.505 | 0.294 | 0.989 | 0.953 | 1.06 | 0.833 | 0.245 | 0.64 | 0.684 | 0.801 | 0.64 | 0.601 |  |  |  |  | 
HCC-78 | 0.387 | 0.392 | 0.345 | 0.376 | 0.281 | 1.03 | 0.836 | 0.206 | 0.134 | 0.202 | 0.901 | 0.954 | 0.84 | 0.916 | 0.906 | 0.533 | 0.519 | 0.534 | 0.399 | 0.507
HCC-366 | 0.911 | 1.16 | 0.466 | 0.374 | 0.0799 | 0.978 | 0.882 | 0.382 | 0.0593 | 0.0394 | 0.174 | 0.182 | 0.272 | 0.157 | 0.0669 | 0.872 | 0.702 | 0.337 | 0.0868 | 0.0636
HCC-827 | 0.742 | 0.773 | 0.569 | 0.668 | 0.174 | 0.172 | 0.262 | 0.205 | 0.208 | 0.134 | 0.262 | 0.266 | 0.127 | 0.236 | 0.192 | 0.955 | 1.22 | 0.913 | 0.558 | 0.266
HOP-62 | 0.802 | 0.882 | 0.521 | 0.696 | 0.523 | 0.973 | 1.05 | 0.833 | 0.533 | 0.187 | 0.389 | 0.361 | 0.378 | 0.318 | 0.243 | 0.596 | 0.458 | 0.39 | 0.193 | 0.127
IA-LM |  |  |  |  |  | 0.704 | 0.614 | 0.78 | 0.666 | 0.301 |  |  |  |  |  | 1.09 | 0.96 | 0.899 | 0.56 | 0.241
LC-2-ad | 0.81 | 0.839 | 0.473 | 0.42 | 0.25 | 0.867 | 0.961 | 0.906 | 0.649 | 0.154 | 0.277 | 0.279 | 0.298 | 0.277 | 0.28 | 0.754 | 0.729 | 0.483 | 0.264 | 0.281
LCLC-97TM1 | 0.532 | 0.517 | 0.403 | 0.423 | 0.116 |  | 1.23 | 0.465 | 0.23 | 0.124 | 0.176 | 0.196 | 0.168 | 0.18 | 0.118 | 0.912 | 0.809 | 0.628 | 0.274 | 0.176
LCLC-103H | 0.515 | 0.516 | 0.392 | 0.55 | 0.424 |  |  |  |  |  | 0.447 | 0.477 | 0.523 | 0.473 | 0.469 | 0.683 | 0.765 | 0.677 | 0.382 | 0.343
NCI-H441 | 0.625 | 0.638 | 0.416 | 0.267 | 0.224 |  |  |  |  |  | 0.254 | 0.257 | 0.235 | 0.193 | 0.153 | 0.72 | 0.613 | 1.08 | 0.623 | 0.46
NCI-H522 | 0.647 | 0.77 | 0.657 | 0.709 | 0.71 |  |  |  |  |  | 0.896 | 1.22 | 0.784 | 0.877 | 1 |  |  |  |  | 
NCI-H727 | 0.724 | 0.674 |  | 0.542 | 0.513 | 0.844 | 0.937 | 0.511 | 0.665 | 0.589 |  |  |  |  |  | 0.902 | 0.711 | 0.641 |  | 0.705
NCI-H1299 |  |  |  |  |  | 0.952 | 0.983 | 1.03 | 0.776 | 0.817 |  |  |  |  |  | 1.07 | 1.08 | 0.934 | 0.497 | 0.277
NCI-H1623 | 0.438 | 0.497 | 0.386 | 0.413 | 0.322 |  |  |  |  |  |  |  |  |  |  | 0.758 | 0.942 | 0.774 | 0.646 | 0.418
NCI-H1648 |  | 0.269 | 0.253 | 0.289 | 0.292 |  |  |  |  |  |  | 0.859 | 0.732 | 0.798 | 0.581 |  |  |  |  | 
NCI-H1703 |  |  |  |  |  |  | 1.14 | 0.866 | 0.376 | 0.271 |  |  |  |  |  | 0.298 | 0.325 | 0.306 | 0.283 | 0.275
NCI-H1792 | 0.509 | 0.699 | 0.51 | 0.696 | 0.537 | 0.939 | 0.832 | 0.883 | 0.798 | 0.595 | 0.743 | 0.768 |  | 0.616 | 0.229 |  |  |  |  | 
NCI-H2342 | 0.707 | 0.649 | 0.51 | 0.402 | 0.352 |  |  |  |  |  | 0.861 | 0.866 | 0.472 | 0.421 | 0.291 | 0.874 | 0.996 | 1.03 | 0.698 | 0.918
SW 900 | 0.448 | 0.563 | 0.367 | 0.333 | 0.129 |  |  |  |  |  | 0.419 | 0.543 | 0.522 | 0.47 | 0.204 | 0.629 | 0.386 | 0.465 | 0.211 | 0.161
